# According to PubChem BioAssay (NCI):
#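 Dose response: 5 concentrations. Exposure: 48 h. Format: 96-well plates. Endpoint: linear interpolation; highest concentration if not reached. The concentration for full growth arrest is given as TGI.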
# Assays:
# Experiment in all cases: DTP human tumour cell line panel, 48 h
# SW-620 colon = system: SW-620 colon
# BT-549 breast = system: BT-549 breast
# HT29 colon = system: HT29 colon
# MALME-3M melanoma = system: MALME-3M melanoma
# OVCAR-5 ovarian = system: OVCAR-5 ovarian
# SF-295 CNS = system: SF-295 CNS
# U251 CNS = system: U251 CNS
# NCI-H460 lung = system: NCI-H460 lung
# M14 melanoma = system: M14 melanoma
# SNB-19 CNS = system: SNB-19 CNS
# OVCAR-3 ovarian = system: OVCAR-3 ovarian
# NCI-H23 lung = system: NCI-H23 lung
# UO-31 renal = system: UO-31 renal
# COLO 205 colon = system: COLO 205 colon
# A549 NSCLC = system: A549 NSCLC
# MOLT-4 leukemia = system: MOLT-4 leukemia
# HOP-92 NSCLC = system: HOP-92 NSCLC
# DU-145 prostate = system: DU-145 prostate
# MDA-MB-435 = system: MDA-MB-435
# RXF 393 renal = system: RXF 393 renal
# OVCAR-4 ovarian = system: OVCAR-4 ovarian
# MDA-N = system: MDA-N
# MDA-MB-231 breast = system: MDA-MB-231 breast
# IGROV1 ovarian = system: IGROV1 ovarian
# 786-0 renal = system: 786-0 renal
# TK-10 renal = system: TK-10 renal
# SK-OV-3 ovarian = system: SK-OV-3 ovarian
# UACC-62 melanoma = system: UACC-62 melanoma
# HCT-15 colon = system: HCT-15 colon
# SR leukemia = system: SR leukemia
# NCI/ADR-RES ovarian = system: NCI/ADR-RES ovarian
# SK-MEL-2 melanoma = system: SK-MEL-2 melanoma
# OVCAR-8 ovarian = system: OVCAR-8 ovarian
# SK-MEL-5 melanoma = system: SK-MEL-5 melanoma
# CAKI-1 renal = system: CAKI-1 renal
# SF-539 CNS = system: SF-539 CNS
# SF-268 CNS = system: SF-268 CNS
# HCT-116 colon = system: HCT-116 colon
# PC-3 prostate = system: PC-3 prostate
# SK-MEL-28 melanoma = system: SK-MEL-28 melanoma
# K-562 leukemia = system: K-562 leukemia
# EKVX NSCLC = system: EKVX NSCLC
# HCC-2998 colon = system: HCC-2998 colon
# KM12 colon = system: KM12 colon
# HOP-62 NSCLC = system: HOP-62 NSCLC
# UACC-257 melanoma = system: UACC-257 melanoma
# CCRF-CEM leukemia = system: CCRF-CEM leukemia
# T-47D breast = system: T-47D breast
# A498 renal = system: A498 renal
# HS 578T breast = system: HS 578T breast
# ACHN renal = system: ACHN renal
# NCI-H522 lung = system: NCI-H522 lung
# LOX IMVI melanoma = system: LOX IMVI melanoma
# SN12C renal = system: SN12C renal
# MCF7 breast = system: MCF7 breast
# RPMI-8226 leukemia = system: RPMI-8226 leukemia
# SNB-75 CNS = system: SNB-75 CNS
structure (smiles),measurement,setting,value
Oc1ccc2ccccc2c1CN(Cc1c(O)ccc2ccccc12)C1CCCCC1,TGI,SW-620 colon,48.9 µM
same,TGI,BT-549 breast,42.7 µM
same,TGI,HT29 colon,39.6 µM
same,TGI,MALME-3M melanoma,29.2 µM
same,TGI,OVCAR-5 ovarian,> 100 µM
same,TGI,SF-295 CNS,> 100 µM
same,TGI,U251 CNS,45.2 µM
same,TGI,NCI-H460 lung,51 µM
same,TGI,M14 melanoma,31.3 µM
same,TGI,SNB-19 CNS,90.2 µM
same,TGI,OVCAR-3 ovarian,41.7 µM
same,TGI,NCI-H23 lung,31.5 µM
same,TGI,UO-31 renal,38.1 µM
same,TGI,COLO 205 colon,29.6 µM
same,TGI,A549 NSCLC,44.4 µM
same,TGI,MOLT-4 leukemia,41.4 µM
same,TGI,HOP-92 NSCLC,37.1 µM
same,TGI,DU-145 prostate,42.8 µM
same,TGI,MDA-MB-435,43.6 µM
same,TGI,RXF 393 renal,46.7 µM
same,TGI,OVCAR-4 ovarian,47.1 µM
same,TGI,MDA-N,28.7 µM
same,TGI,MDA-MB-231 breast,44.1 µM
same,TGI,IGROV1 ovarian,27.6 µM
same,TGI,786-0 renal,30.7 µM
same,TGI,TK-10 renal,36.9 µM
same,TGI,SK-OV-3 ovarian,> 100 µM
same,TGI,UACC-62 melanoma,32.9 µM
same,TGI,HCT-15 colon,45.4 µM
same,TGI,SR leukemia,83.9 µM
same,TGI,NCI/ADR-RES ovarian,54.9 µM
same,TGI,SK-MEL-2 melanoma,67.1 µM
same,TGI,OVCAR-8 ovarian,44.6 µM
same,TGI,SK-MEL-5 melanoma,28.1 µM
same,TGI,CAKI-1 renal,33.6 µM
same,TGI,SF-539 CNS,29.4 µM
same,TGI,SF-268 CNS,27 µM
same,TGI,HCT-116 colon,29.3 µM
same,TGI,PC-3 prostate,38.2 µM
same,TGI,SK-MEL-28 melanoma,51.9 µM
same,TGI,K-562 leukemia,53.5 µM
same,TGI,EKVX NSCLC,29.7 µM
same,TGI,HCC-2998 colon,27.7 µM
same,TGI,KM12 colon,> 100 µM
same,TGI,HOP-62 NSCLC,> 100 µM
same,TGI,UACC-257 melanoma,28.7 µM
same,TGI,CCRF-CEM leukemia,> 100 µM
same,TGI,T-47D breast,> 100 µM
same,TGI,A498 renal,71.6 µM
same,TGI,HS 578T breast,79 µM
same,TGI,ACHN renal,34.7 µM
same,TGI,NCI-H522 lung,27.1 µM
same,TGI,LOX IMVI melanoma,28.2 µM
same,TGI,SN12C renal,28 µM
same,TGI,MCF7 breast,29.3 µM
same,TGI,RPMI-8226 leukemia,97.2 µM
same,TGI,SNB-75 CNS,50.5 µM
